The values that follow are results of earlier work, collected in patent US20150190345A1, “Controlled Release Formulations of Lorazepam” (priority 2014, published 2015).

The conditions of data set [1]: according to the package insert.

In the case of `O=C1Nc2ccc(Cl)cc2C(c2ccccc2Cl)=NC1O` (centres unmarked) [Lorazepam, 7-chloro-5-(2-chlorophenyl)-1,3-dihydro-3-hydroxy-2H-1,4-benzodiazepin-2-one], the solubility in water entry is “almost insoluble in water”. Besides, the “half-life in human plasma” value in data set [1] is recorded as “about 12 hours”.
